In patent US11179369B2, “Sustained release pharmaceutical compositions” (Wyeth, LLC, priority 2003, dated 2021) one finds side effects and water solubility data, which are given here for 2 compounds.

A short description of data set [1]: Side effects on dosing subject patients with aplindore. In kind it is in vivo, human. The conditions noted are these: correlated with time period of maximal plasma levels. The source says: In especially preferred embodiments of each of the formulations of the invention, the active compound is aplindore. Aplindore and pharmaceutically acceptable salts thereof are particularly well-suited to treating various disorders of the central nervous system and more particularly to those central nervous disorders relating to the dopaminergic system. Because aplindore (or any drug) requires a sufficient exposure level to achieve its desired effects, the drug must be dosed in a manner sufficient to achieve the particular blood plasma level over a period of time deemed sufficient to meet the clinical objective sought. […] Simply reducing the dose would not always be satisfactory since, while the side effects might lessen or disappear, the overall drug exposure levels might not be satisfactory to treat the particular condition.

A short description of data set [2]: Water solubility. In kind it is physicochemical. How it is done:
The tablet shapes and total tablet weights were kept same for all four different strengths and for the two different release rate tablets. […] In the formulations of aplindore fumarate 5.0 mg, 2.0 mg, 0.5 mg and 0.05 mg medium and slow release formulations, Lactose Fast Flo has been chosen as the water-soluble compensating excipient. […] It has been used in the 10.0 mg medium release formulation.

The structures appear in SMILES notation.

In the case of `O=C1Cc2c(ccc3c2O[C@@H](CNCc2ccccc2)CO3)N1` [aplindore, S-2-[(Benzylamino)-methyl]-2,3,8,9-tetrahydro-7H-1,4-dioxino[2,3-e]indol-8-one], the side effects result in data set [1] was “side effects including nausea and vomiting”.

Regarding `O=C(O)/C=C/C(=O)O.O=C1Cc2c(ccc3c2O[C@@H](CNCc2ccccc2)CO3)N1` [aplindore fumarate], the water solubility result in data set [2] is listed as “highly water-soluble”.
